Data as given in US20020048566A1, “Modulation of cellular apoptosis and methods for treating cancer” (priority 2000, published 2002).
Residues, ends and D or L forms follow the SMILES beside them. *: point of attachment. Cbz = O=C(OCc1ccccc1)*; CH2F = FC*

Assays:
Format in all cases: cell-based, human
[1] = test system: adrenal carcinoma cell line SW13; assay: FACS for active caspase 3 after p53 transfection with irreversible caspase inhibitors; settings: inhibitor 20 μM added four hours after transfection, harvested at 24 hours
Experimental: Transfections and fluorescence-activated cell sorting (FACS) analysis. Transfections were carried out as previously described (Wu et al., 1997). In brief, before transfection, 5×10^5 cells/6 cm well were seeded. The cells were transfected with lipofectamine Plus. Four hours after transfections the media was changed and an irreversible caspase inhibitor, Z-IETD-FMK (caspase 8) or Z-LEHD-FMK (caspase 9) was added to the media at a final concentration of 20 μM. Cells were harvested 24 hours after transfection and prepared for detection of active-caspase 3 by flow cytometry as previously described (Ozoren et al., 2000). For adenoviral experiments, cells were harvested 48 hours after infection and fixed and stained with propidium iodide as previously described (Ozoren et al., 2000). Cell sorting was performed.
FIG. 5. Infection of colon carcinoma cell line SW480 and breast carcinoma cell line SKBr3 with Ad-p53 results in caspase cleavage and apoptosis. (a) Western blot analysis for PARP cleavage after adenovirus infection. SW480 and SKBr3 cell lines were infected with an MOI of 50 with either Ad-LacZ or Ad-p53 and harvested at 0, 24 and 48 hours after infection. […] (b) Western blot analysis of caspase 8 and 9 cleavage after adenovirus infection. […]

SW480 cell lines = assay: FACS sub-G1 content after Ad-p53 infection of SW480 stably overexpressing c-FLIP-s or Bcl-XL; settings: stable overexpression, 48 hours after infection
Source text: Cell culture and adenoviral/retroviral infection. The culture conditions for SW480, HCT 116, and SkBr3 were maintained as previously described (Wu et al., 1997). The adrenal carcinoma cell line, SW13 was a kind gift from R. Sheikhattar (Wistar Institute). Ad-LacZ and Ad-p53 were obtained from B. Vogelstein (Johns Hopkins University) All adenoviruses were propagated, titered, and amplified as previously described (El-Deiry et al., 1993). The retroviral vector pLIB, pLIB-EGFP, pLIB-c-Flip-s, or pLIB-Bcl-XL was cotransfected with pVSVG and pCgP (Dr. Michael Malim, University of Pennsylvania) into 293T cells using the CaPO4 method. The resulting supernatant was used to infect the SW480 cell line (3×10^5 cell/well plated 48 hours before infection) at a titer necessary to obtain greater than 90% infectivity as previously described (Fouchier et al., 1997).
Transfections and fluorescence-activated cell sorting (FACS) analysis. Transfections were carried out as previously described (Wu et al., 1997). In brief, before transfection, 5×10^5 cells/6 cm well were seeded. The cells were transfected with lipofectamine Plus. Four hours after transfections the media was changed and an irreversible caspase inhibitor, Z-IETD-FMK (caspase 8) or Z-LEHD-FMK (caspase 9) was added to the media at a final concentration of 20 μM. […]

SW480 cells [2] = assay: GFP-spectrin/PI flow cytometry for sub-G1 peak after transient transfection; parameters: key to Apoptotic ability (Table II): WT, able to induce apoptosis as well as wild-type protein; ±, 20-25% reduction in ability to induce apoptosis; −, completely deficient in ability to induce apoptosis
Experimental: GFP/PI Fluorescence-activated Cell Sorting Analysis for Sub-G1 Peak. SW480 cells were transfected with a 1:10 ratio of EGFP-spectrin (Kalejta, R. F., et al., Mol. Ther. 1:130-144 (2000)) and KILLER/DR5 expression plasmid. Transfections were harvested at 18 hours after transfection, processed, and analyzed for the presence of a sub-G1 peak as described previously (Ozoren, N., et al., Int. J. Oncol. 16:917-925 (2000)). 10,000 GFP-positive cells were analyzed per experiment, and three independent experiments were performed for each mutant. Percentage of apoptosis was calculated by subtracting transfection-induced sub-G1 peak (vector transfection) from each wild-type or mutant KILLER/DR5 sub-G1 peak. Figures for Tables II and III were generated by setting wild-type death to 100% (˜40% sub-G1 peak at 18 hours) in order to compare point mutants to the wild-type protein.
(§1) Conserved Hydrophobic Residues Are More Critical for Apoptotic Signaling as Compared with Conserved Charged Positions in the KILLER/DR5 DD. In order to functionally characterize the mutant receptors, this study employed three methods to assess cell death following transfection. The first method involved cotransfection of the mutant receptor along with pCMVb gal. Blue cells were counted after 40 hours in order to determine relative cell survival as compared with vector-transfected cells (number of blue cells for vector was set as equivalent to 100% survival; Table I). To specifically measure apoptosis, this study used a cotransfection based flow cytometric assay to functionally assess apoptotic signaling of each substitution mutant. Each mutant was cotransfected with an EGFP-spectrin construct at a 10:1 ratio (mutant plasmid:EGFP-spectrin plasmid) into SW480 cells for 18 hours and the presence of a sub-G1 peak was used to quantitate apoptotic signaling. […]

SW480 cells [3] = assay: Blue cell assay (cotransfection with pCMVb gal, relative cell survival); settings: for Blue cells % of vector: blue cells counted after 40 hours, vector-transfected blue cells set to 100% survival
Experimental: Blue Cell Method. The blue cell method was performed as previously described (Meng, R. D., et al., Mol. Ther. 1:130-144 (2000)). Calculations for Table I were carried out by setting the number of vector-transfected blue cells to 100% (at least 300 cells for each independent experiment), and the wild-type and point mutants were determined as a percentage of vector transfected.
Conserved Hydrophobic Residues Are More Critical for Apoptotic Signaling as Compared with Conserved Charged Positions in the KILLER/DR5 DD. In order to functionally characterize the mutant receptors, this study employed three methods to assess cell death following transfection. The first method involved cotransfection of the mutant receptor along with pCMVb gal. Blue cells were counted after 40 hours in order to determine relative cell survival as compared with vector-transfected cells (number of blue cells for vector was set as equivalent to 100% survival; Table I). To specifically measure apoptosis, this study used a cotransfection based flow cytometric assay to functionally assess apoptotic signaling of each substitution mutant. Each mutant was cotransfected with an EGFP-spectrin construct at a 10:1 ratio (mutant plasmid:EGFP-spectrin plasmid) into SW480 cells for 18 hours and the presence of a sub-G1 peak was used to quantitate apoptotic signaling. The use of the spectrinbound GFP allowed for the identification of specifically transfected cells, and the spectrin fusion permits cell membrane retention of GFP even if cells lose membrane permeability due to cell death (Kalejta, R. F., et al., Mol. Ther. 1:130-144 (2000)). […] One example of a signaling-competent and -incompetent mutant is also shown for comparison. Table II lists the results of three independent experiments for each mutant compared with the wild-type protein after subtracting out transfection-induced death.

[4] = test system: TRAIL DISC (FADD and caspase 8 recruitment) in 293 HEK cells; assay: TRAIL DISC immunoprecipitation; settings: 16 hours transfection, then 50 ng/ml His-tagged TRAIL 15 minutes at 37° C.
Experimental: TRAIL DISC Immunoprecipitation. 293 HEK cells were plated to achieve 80% confluence at the time of transfection in a T75. 30 ug of the indicated KILLER/DR5 plasmid was transfected by calcium phosphate for 16 hours to minimize loss of transfected cells. The cells were then trypsinized, spun down, and resuspended in 2 ml of complete medium supplemented with 50 ng/ml His tagged-TRAIL and 1 μg/ml anti-6-histidine antibody for 15 minutes at 37° C. For untreated samples, only the TRAIL was excluded. The cells were washed twice with ice-cold phosphate-buffered saline and lysed for 30 minutes on ice in TRAIL DISC IP lysis buffer (30 mM Tris, pH 7.5, 150 mM NaCl, 10% glycerol, 1% Triton X-100). The lysates were cleared twice by centrifugation at 4° C. The supernatants were immunoprecipitated overnight with 30 μl of agarose at 4° C. to isolate the TRAIL DISC. The complexes were subsequently washed four times with TRAIL DISC IP lysis buffer and eluted with elution buffer with 0.1 M dithiothreitol at room temperature for 2 hours. The protein complexes were methanol/chloroform-precipitated and resolved on 15% SDS-polyacrylamide gels. […]
293 HEK cells were chosen due to their ability to be transfected and relative resistance to TRAIL-induced apoptosis. […] The DISC was then immunoprecipitated and analyzed for the presence of the exogenous KILLER/DR5 receptor along with FADD and caspase 8. […]

SW480 cells [5] = assay: PARP cleavage Western blot after transient transfection; settings: 16 hours after transfection
Experimental: Transfections, in Vitro Translation, and Western Blotting. The colon cancer cell line SW480 was maintained and transfected as described previously (Wu, G. S., et al., Nat. Genet. 17:141-143 (1997)). Protein extracts were harvested in 1×Laemmli sample buffer 16 hours after transfection. PARP and Myc immunoblots were performed following SDS-polyacrylamide gel electrophoresis. Horseradish peroxidase-conjugated secondary antibody (1:5000) treatments were followed by enhanced chemiluminescence. In vitro translation reactions were carried out using 1 μg of wild-type or mutant KILLER/DR5 plasmid DNA and a T7-coupled reticulocyte lysate system.
as §1, with “The first method involved cotransfection of the mutant receptor along with pCMVb gal.” left out, “To specifically measure apoptosis, this study used a cotransfection based flow cytometric assay to functionally assess apoptotic signaling of each substitution mutant.” left out

CC[C@H](C)[C@H](NC(=O)OCc1ccccc1)C(=O)N[C@@H](CCC(=O)OC)C(=O)N[C@H](C(=O)N[C@@H](CC(=O)OC)C(=O)CF)[C@@H](C)O [Z-IETD-FMK] (Cbz-IE(OMe)TD(OMe)-CH2F)
inhibition of p53-dependent apoptosis (activated caspase 3) [1]: could be inhibited

COC(=O)CC[C@H](NC(=O)[C@H](CC(C)C)NC(=O)OCc1ccccc1)C(=O)N[C@@H](Cc1cnc[nH]1)C(=O)N[C@@H](CC(=O)OC)C(=O)CF [Z-LETD-FMK, Z-LEHD-FMK] (Cbz-LE(OMe)HD(OMe)-CH2F)
inhibition of p53-dependent apoptosis (activated caspase 3) [1]: could be inhibited

Bcl-XL: stably over-expressed Bcl-XL, specific inhibitor of caspase 9 activation
inhibition of p53-mediated death after Ad-p53 infection (sub-G1) (SW480 cell lines): partially inhibit

K388A: KILLER/DR5 death domain alanine point mutant
Apoptotic ability (Table II) (SW480 cells [2]; 18 hours after transfection): WT | Sub-G1 peak % WT (alanine scanning mutants) (SW480 cells [2]; 18 hours after transfection, transfection-induced death subtracted, wild-type death set to 100%, three independent experiments): 101 ± 11.3 % WT | Blue cells % of vector (SW480 cells [3]): 9 ± 1.5 % of vector

Wild-type KILLER/DR5: wild-type TRAIL receptor KILLER/DR5, Myc-His tagged expression construct
sub-G1 peak (SW480 cells [2]; at 18 hours, absolute value set as 100% wild-type death): ~40% | FADD and caspase 8 recruitment to TRAIL DISC [4]: robust recruitment of both FADD and caspase 8 | PARP cleavage (SW480 cells [5]): efficiently caused PARP cleavage | Blue cells % of vector (SW480 cells [3]): 8 ± 0.2 % of vector | blue cell staining retained (SW480 cells [3]; text summary of Table I): 8%
